Drawing on PubChem BioAssay (NCI), this text covers GI50 and TGI for eight compounds.

Molecules are shown by their SMILES.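 The compound was tested at five concentrations on cells cultured in 96-well plates, with a 48-hour exposure period. At the GI50, growth is halved. TGI denotes the concentration required for complete inhibition of growth.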

Test systems include NCI-H23 lung; SNB-75 CNS; HT29 colon; SK-OV-3 ovarian; MDA-MB-231 breast; SN12C renal; RXF 393 renal; ACHN renal; COLO 205 colon; EKVX NSCLC.
What all share (assay): NCI-60 cell line screen, 48 h

As for `C[C@]12CC[C@@H]3c4ccc(O)cc4CC[C@H]3[C@@H]1CC[C@@H]2NS(=O)(=O)c1cccc(Cl)c1`, the GI50 with NCI-H23 lung was 2.72 µM; with SNB-75 CNS, 2.25 µM; in the assay with HT29 colon, 2.47 µM; in the assay on SK-OV-3 ovarian, 3.79 µM; with MDA-MB-231 breast it was 2.44 µM; with SN12C renal, 1.8 µM. The figures for the GI50 with RXF 393 renal, in the assay on ACHN renal and in the assay on COLO 205 colon were 1.91 µM, 2.58 µM and 1.81 µM, respectively. Further, the TGI in the assay on NCI-H23 lung came out at 10.8 µM; with SNB-75 CNS, 9.01 µM; in the assay on HT29 colon, 6.06 µM; with SK-OV-3 ovarian it was 12.6 µM; with MDA-MB-231 breast, 7.75 µM; with SN12C renal it was 3.8 µM. Moreover, the TGI in the assay on RXF 393 renal was 4.9 µM; in the assay with ACHN renal, 7.69 µM; in the assay on COLO 205 colon it was 3.31 µM.
As to `CC(=Nc1ccccc1)C1=C(O)C(Cc2cccc(F)c2)NC1=O` (configuration not stated), the GI50 in the assay on NCI-H23 lung is 0.101 µM; in the assay with HT29 colon, 0.0372 µM; in the assay with SK-OV-3 ovarian, 0.0469 µM; with MDA-MB-231 breast, 0.178 µM; in the assay on SN12C renal, 0.129 µM; in the assay on RXF 393 renal, 0.0186 µM. Also, the figures for the GI50 with ACHN renal and with COLO 205 colon were 0.0694 µM and 0.035 µM, respectively. The TGI in the assay on NCI-H23 lung is greater than 100 µM; in the assay on HT29 colon, 13.4 µM; in the assay with SK-OV-3 ovarian it was 1.33 µM; in the assay with MDA-MB-231 breast, 1.93 µM; with SN12C renal, greater than 100 µM; in the assay with RXF 393 renal it was 0.0561 µM. The TGI is greater than 100 µM with ACHN renal and 0.141 µM in the assay with COLO 205 colon.
With `CCCCCCCN(CCCCCCC)C(=N)c1ccnc2ccccc12`, the GI50 in the assay with NCI-H23 lung was 1.54 µM; in the assay with SNB-75 CNS, 1.2 µM; with HT29 colon, 1.24 µM; in the assay on SK-OV-3 ovarian, 1.64 µM; in the assay with MDA-MB-231 breast it was 1.62 µM; in the assay with SN12C renal it was 1.67 µM. The GI50 is 1.44 µM with RXF 393 renal, 1.59 µM in the assay on EKVX NSCLC, 1.62 µM with ACHN renal and 1.58 µM in the assay with COLO 205 colon. Moreover, the TGI in the assay with NCI-H23 lung was determined as 3.08 µM; in the assay on SNB-75 CNS, 2.77 µM; in the assay on HT29 colon, 2.87 µM; in the assay with SK-OV-3 ovarian it was 3.14 µM; in the assay with MDA-MB-231 breast, 3.58 µM; in the assay with SN12C renal, 3.49 µM. The TGI in the assay with RXF 393 renal was 2.99 µM; in the assay on EKVX NSCLC it was 3.15 µM; with ACHN renal, 3.07 µM; in the assay with COLO 205 colon, 3.51 µM.
Turning to `O=C1NC(=O)[C@@]2(CC[C@@H](O)C2)c2ccncc21`, the TGI in the assay with NCI-H23 lung, in the assay with SNB-75 CNS, with HT29 colon, in the assay with SK-OV-3 ovarian, in the assay on MDA-MB-231 breast and in the assay with SN12C renal was greater than 100 µM in each case. For the same compound, the TGI with RXF 393 renal, with EKVX NSCLC, in the assay on ACHN renal and in the assay with COLO 205 colon was greater than 100 µM in each case.
Consider `CC/C=C\C[C@H](O)C/C=C1/C(=O)C=C[C@@H]1C/C=C\CCCC(=O)OC(C)C`, for which the GI50 in the assay on NCI-H23 lung was 1.73 µM; in the assay with SNB-75 CNS, 4.78 µM; in the assay on HT29 colon, 1.65 µM; with SK-OV-3 ovarian, 5.01 µM; with MDA-MB-231 breast it was 3.17 µM; with SN12C renal it was 2.42 µM. For the same compound, the GI50 with RXF 393 renal is 1.76 µM; with EKVX NSCLC it was 3.04 µM; in the assay on ACHN renal it was 1.88 µM; with COLO 205 colon, 1.79 µM. Moreover, the TGI amounted to 4.37 µM in the assay on NCI-H23 lung; 19.7 µM in the assay on SNB-75 CNS; 3.21 µM in the assay on HT29 colon; 16.1 µM in the assay with SK-OV-3 ovarian; 9.77 µM with MDA-MB-231 breast; 6.35 µM with SN12C renal. For the same compound, the TGI was found to be 3.27 µM in the assay on RXF 393 renal, 11.6 µM in the assay on EKVX NSCLC, 3.79 µM in the assay with ACHN renal and 3.87 µM in the assay with COLO 205 colon.
Take `C=C1C(=O)O[C@H]2[C@H]1CC/C(COC(=O)c1cn(C)c3ccccc13)=C\CC[C@@]1(C)O[C@@H]21`: the GI50 in the assay on NCI-H23 lung is 1.93 µM; in the assay on SNB-75 CNS it was 1.09 µM; in the assay on HT29 colon it was 0.526 µM; in the assay with SK-OV-3 ovarian, 4.33 µM; in the assay with MDA-MB-231 breast, 1.05 µM; in the assay with SN12C renal, 0.719 µM. For the same compound, the GI50 is 0.589 µM in the assay with RXF 393 renal, 0.962 µM in the assay on EKVX NSCLC, 0.828 µM in the assay with ACHN renal and 1.24 µM in the assay on COLO 205 colon. Further, the TGI with NCI-H23 lung came out at 4.92 µM; in the assay on SNB-75 CNS, 2.32 µM; in the assay on HT29 colon, 1.78 µM; with SK-OV-3 ovarian, 15 µM; with MDA-MB-231 breast, 2.47 µM; in the assay with SN12C renal it was 2.3 µM. Also, the TGI turned out to be 2.11 µM in the assay on RXF 393 renal, 3.42 µM with EKVX NSCLC, 2.09 µM in the assay with ACHN renal and 2.59 µM with COLO 205 colon.
Consider `COC(NC(N)=O)C(=O)O` (configuration not stated), for which the TGI in the assay with NCI-H23 lung, with SNB-75 CNS, in the assay on HT29 colon, in the assay on SK-OV-3 ovarian, with MDA-MB-231 breast and with SN12C renal was greater than 100 µM in each case. Further, the TGI in the assay with RXF 393 renal, with EKVX NSCLC, in the assay on ACHN renal and with COLO 205 colon was greater than 100 µM each time.
For `COc1cccc(OC(=O)c2ccc(C(F)(F)F)nc2Nc2c(C)cccc2Cl)c1`, the GI50 in the assay with NCI-H23 lung was 1.84 µM; with SNB-75 CNS, 16.4 µM; in the assay with HT29 colon, 26.4 µM; in the assay with SK-OV-3 ovarian it was 32.9 µM; in the assay with MDA-MB-231 breast, 12.9 µM; in the assay on SN12C renal, 21.4 µM. Also, the values for the GI50 with RXF 393 renal, with EKVX NSCLC and in the assay with COLO 205 colon were 25 µM, 36.1 µM and 22.6 µM, respectively. Further, the TGI in the assay with NCI-H23 lung is 19 µM; in the assay with SNB-75 CNS, 40.9 µM; in the assay on HT29 colon, greater than 100 µM; in the assay on SK-OV-3 ovarian, greater than 100 µM; in the assay on MDA-MB-231 breast, 42.5 µM; in the assay on SN12C renal, 64.3 µM. Moreover, the TGI with RXF 393 renal was 55.7 µM; in the assay on EKVX NSCLC it was greater than 100 µM; in the assay on COLO 205 colon, greater than 100 µM.
